This passage reports Disease rate results from patent US9474281B2, “Fungicidal composition and method for controlling plant diseases” (ISHIHARA SANGYO KAISHA, LTD., priority 2008, dated 2016).

Several values for one entry are separate records, joined by “and”; a condition that tells them apart may be missing. Equal values may be shown once.

The test system of one assay is Erysiphe graminis. The assay can be described thus: Test on preventive effect against wheat powdery mildew. The format is in vivo. Conditions: applied alone. The arrangement: key: lesion area as % of non-treated plot: (treated/non-treated)×100. How it is done: Wheat (cultivar: Norin-61-go) was cultivated in a plastic pot having a diameter of 7.5 cm, and when it reached 1.5-leaf stage, 10 ml of a chemical solution having each test compound adjusted to a prescribed concentration, was applied by a spray gun in an amount of 1000 L/ha. After the chemical solution dried, conidia of Erysiphe graminis were dusted and inoculated and maintained in a constant temperature chamber at 20° C. From 6 to 8 days after the inoculation, the area of sporulation was investigated, and the disease rate was determined in accordance with the following formula, and the results are shown in Tables 1 to 4. The average lesion area in the non-treated plot was determined in the same manner as for the treated plot except that water was applied by a spray gun instead of the chemical solution. Disease rate=(a/b)×100
a: average lesion area in the treated plot
b: average lesion area in the non-treated plot
Theoretical values were calculated in accordance with the Colby's formula. The fungicidal composition of the present invention has a synergistic effect regarding the test on preventive effect against wheat powdery mildew, when the experimental value is lower than the theoretical value. Theoretical values by the Colby's formula in such cases are shown in brackets in Tables 1 to 4.

Another assay deals with Sphaerotheca cucurbitae. Put plainly: Test on preventive effect against cucumber powdery mildew. The format is in vivo. Also noted: scale not given here. Conditions: applied alone. Here is the method:
Cucumber (cultivar: Suyo) was cultivated in a plastic pot having a diameter of 7.5 cm, and when it reached 1.5-leaf stage, 10 ml of a chemical solution having the compound of the present invention adjusted to a prescribed concentration, was applied by a spray gun. After the chemical solution dried, a suspension of conidia of Sphaerotheca cucurbitae was sprayed and inoculated and maintained in a constant temperature chamber at 20° C. From 9 to 10 days after the inoculation, the area of sporulation was investigated, and the disease rate was determined in the same manner as in Test Example 1, and the results are shown in Tables 5 to 20. The average lesion area in the non-treated plot was determined in the same manner as for the treated plot except that water was applied by a spray gun instead of the chemical solution.
Further, theoretical values by the Colby's formula are shown in brackets in Tables 5 to 20.

Consider `COC(=O)N(OC)c1ccccc1COc1ccn(-c2ccc(Cl)cc2)n1` [Pyraclostrobin], for which the Disease rate in the assay on Erysiphe graminis (100 ppm), in the assay with Erysiphe graminis (200 ppm) and in the assay with Erysiphe graminis (400 ppm) was 100 each time.
Consider `COc1cc(C)c(C(=O)c2c(Cl)cnc(Cl)c2C(F)(F)F)c(OC)c1OC` [Compound No. 39, 4-(2,3,4-trimethoxy-6-methylbenzoyl)-2,5-dichloro-3-trifluoromethylpyridine], for which the Disease rate in the assay on Erysiphe graminis (1.6 ppm) is on record as 85; in the assay with Erysiphe graminis (3.1 ppm) it was 75; with Erysiphe graminis (6.3 ppm), 60.
For the molecule `CC(=O)Oc1c(C)c(C)nc2c(F)cc(C(C)(C)C)cc12` [6-t-butyl-8-fluoro-2,3-dimethylquinolin-4-yl acetate], the Disease rate in the assay on Sphaerotheca cucurbitae (6.3 ppm) stood at 83.6; with Sphaerotheca cucurbitae (12.5 ppm) it was 63.9; in the assay on Sphaerotheca cucurbitae (25 ppm), 59.0; in the assay with Sphaerotheca cucurbitae (50 ppm), 34.4.
For the molecule `COc1ccccc1N1CCS/C1=C(/C#N)Sc1cc(C(F)(F)F)ccc1F` [flutianil], the Disease rate with Sphaerotheca cucurbitae (0.0063 ppm) is on record as 95; in the assay with Sphaerotheca cucurbitae (0.0125 ppm) it was 85; in the assay with Sphaerotheca cucurbitae (0.025 ppm), 65.
Turning to `COc1cc(C)c(C(=O)c2c(OC)ncc(Cl)c2C)c(OC)c1OC` [Compound No. 35, 3-(2,3,4-trimethoxy-6-methylbenzoyl)-5-chloro-2-methoxy-4-methylpyridine], the Disease rate in the assay on Erysiphe graminis (0.8 ppm) was 70 and 100; in the assay with Erysiphe graminis (1.6 ppm) it was 70 and 100; with Erysiphe graminis (3.1 ppm), 100; with Erysiphe graminis (6.3 ppm), 60.
As to `CC1CCN(C2C(c3c(F)cc(F)cc3F)=C(Cl)N=C3N=CNN32)CC1` (stereo not shown) [the compound of the formula (II)], the Disease rate in the assay with Sphaerotheca cucurbitae (0.8 ppm) is recorded as 88.1; with Sphaerotheca cucurbitae (3.1 ppm) it was 17.2; in the assay with Sphaerotheca cucurbitae (6.3 ppm), 8.6.
Consider `COC(=O)NCc1cc(/C(C)=N/OCc2cccc(C)n2)ccc1Cl` [Pyribencarb], for which the Disease rate in the assay with Sphaerotheca cucurbitae (12.5 ppm) came to 73.0; in the assay with Sphaerotheca cucurbitae (25 ppm) it was 63.2; in the assay on Sphaerotheca cucurbitae (50 ppm), 63.2.
In the case of `CC(C)CC(C)c1sccc1NC(=O)c1cn(C)nc1C(F)(F)F` (stereo not shown) [Penthiopyrad], the Disease rate with Sphaerotheca cucurbitae (0.4 ppm) turned out to be 77.4; in the assay on Sphaerotheca cucurbitae (0.8 ppm) it was 51.6; with Sphaerotheca cucurbitae (1.6 ppm), 17.2.
Take `CC1COC(Cn2cncn2)(c2ccc(Oc3ccc(Cl)cc3)cc2Cl)O1` (stereo not shown) [Difenoconazole]: the Disease rate with Erysiphe graminis (12.5 ppm) was determined as 85; in the assay on Erysiphe graminis (25 ppm), 70; in the assay on Erysiphe graminis (50 ppm), 40.
As for `COc1cc(C)c(C(=O)c2c(OC)cnc(Cl)c2C(F)(F)F)c(OC)c1OC` [Compound No. 40, 4-(2,3,4-trimethoxy-6-methylbenzoyl)-2-chloro-3-trifluoromethyl-5-methoxypyridine], the Disease rate in the assay on Erysiphe graminis (0.8 ppm) was determined as 50; in the assay with Sphaerotheca cucurbitae (1.6 ppm), 43.0.
For the molecule `C/C=C/C(=O)Oc1c(C(C)CCCCCC)cc([N+](=O)[O-])cc1[N+](=O)[O-]` (stereo not shown) [Mepthyldinocap, Meptyldinocap], the Disease rate with Sphaerotheca cucurbitae (0.8 ppm) is 75; in the assay on Sphaerotheca cucurbitae (1.6 ppm) it was 60; in the assay with Sphaerotheca cucurbitae (3.1 ppm), 60.
`O=C(Nc1ccccc1-c1ccc(Cl)cc1)c1cccnc1Cl` [Boscalid]: the Disease rate in the assay on Sphaerotheca cucurbitae (6.3 ppm) is 43.0; with Sphaerotheca cucurbitae (12.5 ppm), 43.0; with Sphaerotheca cucurbitae (25 ppm), 25.8.
For the molecule `S1SSSSSSS1` [sulfur, Sulfur], the Disease rate stood at 98.0 in the assay on Sphaerotheca cucurbitae (6.3 ppm), 88.2 with Sphaerotheca cucurbitae (12.5 ppm) and 68.6 with Sphaerotheca cucurbitae (25 ppm).
